This experiment has as its system human. Nature of the experiment: Oral administration to an adult human: aphrodisiac effect and increased vaginal lubrication. The format is in vivo. The note with it: 3 ml of 5M sodium iodide in water added to 20 ml lemon juice plus 1 tbsp sugar; patient. An excerpt:
The terms “aphrodisiac” or “heightened sexual desire”, for the purposes of the present invention, refer to the following physical manifestations including clitoral swelling, nipple erection, contraction of the vaginal musculature, and a general tingling sensation.
Specifically, after oral administration of an iodide salt, the subject experienced increased vaginal lubrication. The term “increased vaginal lubrication”, as used herein, refers to an increased amount of transudate present in the vagina above the amount of transudate present in the vagina above the amount of transudate present in the unstimulated state.
The syrup was administered orally to a human, weighing approximately 165 pounds. About 0.5 to 3.0 teaspoons of the hydriodic acid syrup was admixed with approximately 8 ounces of tap water and then ingested.
To 20 ml of lemon juice are added 3 ml of a 5M solution of sodium iodide in water, and 1 tbsp of sugar is added to the resultant solution.

The values that follow come from patent US20020058072A1, “Use of iodide salt as an aphrodisiac” (priority 2000, published 2002).

In the case of `[I-].[Na+]` [sodium iodide], the “reaction observed after administration (arousal, vaginal lubrication)” value was “arousal and increased vaginal lubrication”.
